molecular target: T1, human ACC2 (Homo sapiens, UniProt O00763); assay: ACC2 assay, spectrophotometric 384 well assay (NADH-linked, coupled lactate dehydrogenase/pyruvate kinase); type: biochemical; conditions: ACC2 assay, hACC2 construct lacking 128 N-terminal amino acids, 25° C., 340 nm; read-out: IC50
T1 construct: made in house; host or cells: insect cells (baculoviral expression system)
Summary of the method: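 Human ACC2 lacking N-terminal 128 aa, baculovirus/insect-cell expressed, anion-exchange purified; 100 mM Tris pH 7.5, 10 mM citrate, 25 mM KHCO3, 1% DMSO. Started with 200 μM NADH and acetyl-CoA plus 500 μM ATP; PK/LDH-coupled A340 decrease read 15 min at 25° C. IC50 by nonlinear fit of low-control-subtracted slopes.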

T1 sequence (O00763 129-2458 limits assumed): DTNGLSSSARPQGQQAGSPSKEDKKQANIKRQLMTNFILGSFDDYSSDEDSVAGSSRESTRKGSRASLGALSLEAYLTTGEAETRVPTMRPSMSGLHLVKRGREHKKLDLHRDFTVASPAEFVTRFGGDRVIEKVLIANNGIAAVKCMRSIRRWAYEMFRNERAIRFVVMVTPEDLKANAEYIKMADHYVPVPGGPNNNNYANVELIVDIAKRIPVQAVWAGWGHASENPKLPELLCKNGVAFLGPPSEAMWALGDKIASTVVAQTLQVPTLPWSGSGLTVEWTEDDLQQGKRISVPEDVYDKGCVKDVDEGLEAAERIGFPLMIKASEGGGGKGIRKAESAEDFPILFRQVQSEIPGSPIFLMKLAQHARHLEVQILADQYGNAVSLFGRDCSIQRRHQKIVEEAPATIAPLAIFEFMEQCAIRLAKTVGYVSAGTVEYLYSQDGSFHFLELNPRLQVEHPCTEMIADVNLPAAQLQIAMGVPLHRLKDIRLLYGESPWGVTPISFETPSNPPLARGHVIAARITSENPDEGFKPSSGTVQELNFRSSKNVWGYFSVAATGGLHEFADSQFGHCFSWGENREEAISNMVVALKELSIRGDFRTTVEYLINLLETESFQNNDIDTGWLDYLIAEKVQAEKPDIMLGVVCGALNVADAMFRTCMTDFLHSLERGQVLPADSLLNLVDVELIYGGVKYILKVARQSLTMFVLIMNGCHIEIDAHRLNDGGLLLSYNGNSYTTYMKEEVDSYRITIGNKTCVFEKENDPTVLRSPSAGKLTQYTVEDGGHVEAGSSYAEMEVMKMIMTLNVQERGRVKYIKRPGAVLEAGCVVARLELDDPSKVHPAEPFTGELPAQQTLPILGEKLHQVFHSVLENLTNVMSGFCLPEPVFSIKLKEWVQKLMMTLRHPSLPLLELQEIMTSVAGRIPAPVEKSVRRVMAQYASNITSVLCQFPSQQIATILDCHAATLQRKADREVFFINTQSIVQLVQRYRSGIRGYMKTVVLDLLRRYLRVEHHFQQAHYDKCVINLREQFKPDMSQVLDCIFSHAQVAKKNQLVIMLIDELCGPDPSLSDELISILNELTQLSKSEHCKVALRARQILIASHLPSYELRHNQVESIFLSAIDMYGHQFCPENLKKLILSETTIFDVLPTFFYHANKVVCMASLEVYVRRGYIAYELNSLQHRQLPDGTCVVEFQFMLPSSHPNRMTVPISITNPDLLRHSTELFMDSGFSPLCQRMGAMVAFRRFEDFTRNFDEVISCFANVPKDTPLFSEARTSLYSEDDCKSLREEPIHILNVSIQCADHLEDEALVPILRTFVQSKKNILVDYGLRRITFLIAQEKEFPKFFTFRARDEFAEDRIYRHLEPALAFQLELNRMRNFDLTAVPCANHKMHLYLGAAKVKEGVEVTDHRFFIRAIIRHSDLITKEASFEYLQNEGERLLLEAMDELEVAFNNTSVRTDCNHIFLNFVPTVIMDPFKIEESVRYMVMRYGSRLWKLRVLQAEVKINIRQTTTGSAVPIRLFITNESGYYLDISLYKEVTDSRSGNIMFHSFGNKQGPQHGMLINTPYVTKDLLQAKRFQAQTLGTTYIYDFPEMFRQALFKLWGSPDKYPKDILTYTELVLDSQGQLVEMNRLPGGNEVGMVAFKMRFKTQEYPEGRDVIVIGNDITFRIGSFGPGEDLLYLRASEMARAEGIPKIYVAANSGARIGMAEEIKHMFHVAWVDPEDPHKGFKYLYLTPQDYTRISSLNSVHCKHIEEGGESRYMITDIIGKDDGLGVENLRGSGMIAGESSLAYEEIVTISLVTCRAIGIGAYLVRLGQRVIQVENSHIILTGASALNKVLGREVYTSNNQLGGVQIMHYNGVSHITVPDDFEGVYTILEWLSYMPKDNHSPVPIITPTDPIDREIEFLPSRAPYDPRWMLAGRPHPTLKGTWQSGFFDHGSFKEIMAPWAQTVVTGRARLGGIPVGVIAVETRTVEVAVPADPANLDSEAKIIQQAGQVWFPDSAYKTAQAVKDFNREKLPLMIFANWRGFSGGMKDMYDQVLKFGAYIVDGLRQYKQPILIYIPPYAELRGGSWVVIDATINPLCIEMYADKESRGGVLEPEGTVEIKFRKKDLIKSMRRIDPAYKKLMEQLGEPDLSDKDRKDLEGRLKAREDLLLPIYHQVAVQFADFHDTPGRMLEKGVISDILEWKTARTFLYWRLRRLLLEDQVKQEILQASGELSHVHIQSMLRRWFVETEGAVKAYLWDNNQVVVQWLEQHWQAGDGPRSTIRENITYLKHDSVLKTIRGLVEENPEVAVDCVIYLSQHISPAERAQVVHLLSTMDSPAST

Q: How did the IC50 turn out when `CCOc1cc(N2CCC(c3ccc([C@H](C)NC(C)=O)cc3)CC2)ncn1` [Example 11.36] was run?
A: 0.58 µM

Q: How did the IC50 turn out when `CCOc1nccc(N2CCC(c3ccc([C@H](C)NC(C)=O)cc3)CC2)n1` [Example 11.37] was run?
A: 0.93 µM

Q: For `CC(=O)N[C@@H](C)c1ccc(C2CCN(c3ccnc(OC(C)C)n3)CC2)cc1` [Example 11.38], which IC50 is on record?
A: 0.56 µM

Q: `CC(=O)N[C@@H](C)c1ccc(C2CCN(c3ccnc(NC(C)c4ccccc4)n3)CC2)cc1` (some centres unmarked) [Example 11.39] was tested. Which IC50 did it give?
A: 6.6 µM

Q: Which IC50 does the source give for `CC(=O)N[C@@H](C)c1ccc(C2CCN(c3cc(NC(C)c4ccccc4)ncn3)CC2)cc1` (some centres unmarked) [Example 11.40] here?
A: 8.1 µM

Q: With `CCCNc1nccc(N2CCC(c3ccc([C@H](C)NC(C)=O)cc3)CC2)n1` [Example 11.41] as the compound, how does the IC50 read?
A: 3.1 µM

Q: With `CCCNc1cc(N2CCC(c3ccc([C@H](C)NC(C)=O)cc3)CC2)ncn1` [Example 11.42] as the compound, how does the IC50 read?
A: 7.1 µM

Q: For `CC(=O)N[C@@H](C)c1ccc(C2CCN(c3ccnc(NC(C)C)n3)CC2)cc1` [Example 11.43], which IC50 is on record?
A: 3.3 µM

Q: For `CC(=O)N[C@@H](C)c1ccc(C2CCN(c3cc(NC(C)C)ncn3)CC2)cc1` [Example 11.44], which IC50 is on record?
A: 5 µM

Q: For `CC(=O)N[C@@H](C)c1ccc(C2CCN(c3ccnc(NC4CCC4)n3)CC2)cc1` [Example 11.45], which IC50 is on record?
A: 1.5 µM

Q: With `CC(=O)N[C@@H](C)c1ccc(C2CCN(c3cc(NC4CCC4)ncn3)CC2)cc1` [Example 11.46] as the compound, how does the IC50 read?
A: 2.8 µM

Q: For `CC(=O)N[C@@H](C)c1ccc(C2CCN(c3ccnc(N(C)C(C)C)n3)CC2)cc1` [Example 11.47], which IC50 is on record?
A: 0.54 µM

Q: How did the IC50 turn out when `CC(=O)N[C@@H](C)c1ccc(C2CCN(c3cc(N(C)C(C)C)ncn3)CC2)cc1` [Example 11.48] was run?
A: 0.58 µM

Q: For `CC(=O)N[C@@H](C)c1ccc(C2CCN(c3ccnc(N4CCc5ccccc54)n3)CC2)cc1` [Example 11.49], which IC50 is on record?
A: 0.35 µM

Q: Which IC50 does the source give for `CCNc1nccc(N2CCC(c3ccc([C@H](C)NC(C)=O)cc3)CC2)n1` [Example 11.50] here?
A: 4.2 µM

Q: `CCNc1cc(N2CCC(c3ccc([C@H](C)NC(C)=O)cc3)CC2)ncn1` [Example 11.51] was tested. Which IC50 did it give?
A: 7.8 µM

Q: Which IC50 does the source give for `CC(=O)N[C@@H](C)c1ccc(C2CCN(c3cc(-n4ccc(=N)cc4)ncn3)CC2)cc1` [Example 11.52] here?
A: 18.5 µM

Q: Which IC50 does the source give for `COc1ccc(Nc2cc(N3CCC(c4ccc([C@H](C)NC(C)=O)cc4)CC3)ncn2)cc1` [Example 11.53] here?
A: 6 µM

Q: Which IC50 does the source give for `COc1ccc(Nc2nccc(N3CCC(c4ccc([C@H](C)NC(C)=O)cc4)CC3)n2)cc1` [Example 11.54] here?
A: 3.7 µM

Q: For `CC(=O)N[C@@H](C)c1ccc(C2CCN(c3cc(NCc4ccccc4)ncn3)CC2)cc1` [Example 11.55], which IC50 is on record?
A: 3.7 µM

Q: With `CC(=O)N[C@@H](C)c1ccc(C2CCN(c3ccnc(NCc4ccccc4)n3)CC2)cc1` [Example 11.56] as the compound, how does the IC50 read?
A: 2.3 µM

Q: How did the IC50 turn out when `CC(=O)N[C@@H](C)c1ccc(C2CCN(c3cc(N4CCCCC4)ncn3)CC2)cc1` [Example 11.57] was run?
A: 0.42 µM

Q: With `CC(=O)N[C@@H](C)c1ccc(C2CCN(c3ccnc(N4CCCCC4)n3)CC2)cc1` [Example 11.58] as the compound, how does the IC50 read?
A: 0.26 µM

Q: `CC(=O)N[C@@H](C)c1ccc(C2CCN(c3cc(NCc4ccco4)ncn3)CC2)cc1` [Example 11.59] was tested. Which IC50 did it give?
A: 6.1 µM

Q: `CC(=O)N[C@@H](C)c1ccc(C2CCN(c3ccnc(NCc4ccco4)n3)CC2)cc1` [Example 11.60] was tested. Which IC50 did it give?
A: 5.3 µM

Q: With `CC(=O)N[C@@H](C)c1ccc(C2CCN(c3ccnc(NC4CCCC4)n3)CC2)cc1` [Example 11.61] as the compound, how does the IC50 read?
A: 1.3 µM

Q: For `CCCCNc1cc(N2CCC(c3ccc([C@H](C)NC(C)=O)cc3)CC2)ncn1` [Example 11.62], which IC50 is on record?
A: 3.3 µM

Q: Which IC50 does the source give for `CCCCNc1nccc(N2CCC(c3ccc([C@H](C)NC(C)=O)cc3)CC2)n1` [Example 11.63] here?
A: 2 µM

Q: For `COCCNc1nccc(N2CCC(c3ccc([C@H](C)NC(C)=O)cc3)CC2)n1` [Example 11.64], which IC50 is on record?
A: 17.9 µM

Q: With `CC(=O)N[C@@H](C)c1ccc(C2CCN(c3cc(NCC(C)C)ncn3)CC2)cc1` [Example 11.65] as the compound, how does the IC50 read?
A: 4.7 µM

Q: How did the IC50 turn out when `CC(=O)N[C@@H](C)c1ccc(C2CCN(c3ccnc(NCC(C)C)n3)CC2)cc1` [Example 11.66] was run?
A: 2.2 µM

Q: `CC(=O)N[C@@H](C)c1ccc(C2CCN(c3cc(NCc4ccccn4)ncn3)CC2)cc1` [Example 11.67] was tested. Which IC50 did it give?
A: 26.4 µM

— patent US9006450B2 (Boehringer Ingelheim International GmbH, priority 2010, dated 2015)
